US7173023B2, “Bicyclic compounds” (Hoffmann-La Roche Inc., priority 2003, dated 2007)

What was measured:
human MAO-B = target: T1, human MAO-B (Homo sapiens, UniProt P27338); assay: MAO-B enzymatic activity, spectrophotometric assay (tyramine, Amplex Red); assay type: biochemical; details: membranes of EBNA cells transfected with human MAO-B cDNA; 30 min preincubation at 37° C., pH 7.4; substrate tyramine
T1 construct: expressed in transfected cells; host or cells: EBNA cells (transient transfection); cell membranes used
T1 sequence (P27338 1-520): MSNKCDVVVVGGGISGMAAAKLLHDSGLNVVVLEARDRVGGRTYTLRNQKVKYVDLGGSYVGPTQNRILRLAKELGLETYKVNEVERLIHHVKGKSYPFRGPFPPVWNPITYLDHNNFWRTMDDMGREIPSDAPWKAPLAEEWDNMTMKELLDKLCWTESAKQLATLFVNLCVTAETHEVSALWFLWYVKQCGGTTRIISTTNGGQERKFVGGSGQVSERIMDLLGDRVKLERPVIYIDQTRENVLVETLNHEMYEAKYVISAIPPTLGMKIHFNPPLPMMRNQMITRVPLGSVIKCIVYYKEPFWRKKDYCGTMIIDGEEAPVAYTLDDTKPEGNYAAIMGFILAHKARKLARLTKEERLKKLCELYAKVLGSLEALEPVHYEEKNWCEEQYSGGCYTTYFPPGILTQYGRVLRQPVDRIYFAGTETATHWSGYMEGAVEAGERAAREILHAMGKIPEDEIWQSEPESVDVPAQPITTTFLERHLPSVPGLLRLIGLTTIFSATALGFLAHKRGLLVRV
Description: (§1) The cDNA's encoding human MAO-A and MAO-B were transiently transfected into EBNA cells using the procedure described by Schlaeger and Christensen [Cytotechnology 15:1–13 (1998)]. After transfection, cells were homogenised by means of a Polytron homogenizer in 20 mM Tris HCl buffer, pH 8.0, containing 0.5 mM EGTA and 0.5 mM phenylmethanesulfonyl fluoride. Cell membranes were obtained by centrifugation at 45,000×g and, after two rinsing step with 20 mM Tris HCl buffer, pH 8.0, containing 0.5 mM EGTA, membranes were eventually re-suspended in the above buffer and aliquots stored at −80° C. until use.
(§2) MAO-A and MAO-B enzymatic activity was assayed in 96-well-plates using a spectrophotometric assay adapted from the method described by Zhou and Panchuk-Voloshina [Analytical Biochemistry 253:169–174 (1997)]. Briefly, membrane aliquots were incubated in 0.1 M potassium phosphate buffer, pH 7.4, for 30 min at 37° C. with or without various concentrations of the compounds. After this period, the enzymatic reaction was started by the addition of the MAO substrate tyramine together with 1 U/ml horse-radish peroxidase (Roche Biochemicals) and 80 μM N-acetyl-3,7,-dihydroxyphenoxazine (Amplex Red, Molecular Probes). The samples were further incubated for 30 min at 37° C. in a final volume of 200 μl and absorbance was then determined at a wavelength of 570 nm using a SpectraMax plate reader (Molecular Devices). Background (non-specific) absorbance was determined in the presence of 10 μM clorgyline for MAO-A or 10 μM L-deprenyl for MAO-B.
(§3) IC50 values were determined from inhibition curves obtained using nine inhibitor concentrations in duplicate, by fitting data to a four parameter logistic equation using a computer program.

human MAO-A = target: T2, human MAO-A (Homo sapiens, UniProt P21397); assay: MAO-A enzymatic activity, spectrophotometric assay (tyramine, Amplex Red); assay type: biochemical; details: membranes of EBNA cells transfected with human MAO-A cDNA; 30 min preincubation at 37° C., pH 7.4; substrate tyramine
T2 construct: expressed in transfected cells; host or cells: EBNA cells (transient transfection); cell membranes used
T2 sequence (P21397 1-527): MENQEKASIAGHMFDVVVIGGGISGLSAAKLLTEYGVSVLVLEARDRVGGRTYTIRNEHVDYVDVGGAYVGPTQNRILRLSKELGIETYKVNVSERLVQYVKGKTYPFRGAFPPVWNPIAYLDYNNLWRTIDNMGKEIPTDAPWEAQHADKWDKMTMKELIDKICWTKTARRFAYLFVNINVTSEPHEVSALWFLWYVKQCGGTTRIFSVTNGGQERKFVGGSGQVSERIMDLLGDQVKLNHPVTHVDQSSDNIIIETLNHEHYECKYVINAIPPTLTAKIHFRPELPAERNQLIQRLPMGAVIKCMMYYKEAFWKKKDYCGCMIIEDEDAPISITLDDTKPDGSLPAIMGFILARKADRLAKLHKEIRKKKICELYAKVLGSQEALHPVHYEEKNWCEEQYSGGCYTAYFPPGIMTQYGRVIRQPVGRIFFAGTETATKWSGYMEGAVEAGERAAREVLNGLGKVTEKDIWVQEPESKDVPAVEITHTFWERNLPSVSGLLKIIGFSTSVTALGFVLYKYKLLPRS
Description: as §1, §2, §3

Row | Structure (SMILES) | IC50 (human MAO-B) [µM] | IC50 (human MAO-A) [µM]
1 | CN1C=Cc2ccc(OCc3cccc(F)c3)cc2CC1=O [Example 13, 8-(3-Fluoro-benzyloxy)-3-methyl-1,3-dihydro-benzo[d]azepin-2-one] | 0.15 | 4.6
2 | CC(=O)N1C=Cc2ccc(OCc3cccc(F)c3)cc2CC1=O [Example 15, 3-Acetyl-8-(3-fluoro-benzyloxy)-1,3-dihydro-benzo[d]azepin-2-one] | 0.13 | > 9.5
3 | CC(=O)N1CCc2ccc(OCc3cccc(F)c3)cc2CC1 [Example 1, 1-[7-(3-Fluoro-benzyloxy)-1,2,4,5-tetrahydro-benzo[d]azepin-3-yl]-ethanone] | 0.082 | > 10

Now those with a lower IC50 (human MAO-B), led by results:

Row | IC50 (human MAO-B) [µM] | IC50 (human MAO-A) [µM] | Structure (SMILES)
4 | 0.021 | > 10 | NC(=O)N1CCc2ccc(OCc3cccc(F)c3)cc2CC1 [Example 8, 7-(3-Fluoro-benzyloxy)-1,2,4,5-tetrahydro-benzo[d]azepine-3-carboxylic Acid Amide]
5 | 0.073 | 5.5 | COCC(=O)N1CCc2ccc(OCc3cccc(F)c3)cc2CC1 [Example 2, 1-[7-(3-Fluoro-benzyloxy)-1,2,4,5-tetrahydro-benzo[d]azepin-3-yl]-2-methoxy-ethanone]
6 | 0.024 | > 10 | NC(=O)C(=O)N1CCc2ccc(OCc3cccc(F)c3)cc2CC1 [Example 3, 2-[7-(3-Fluoro-benzyloxy)-1,2,4,5-tetrahydro-benzo[d]azepin-3-yl]-2-oxo-acetamide]
7 | 0.007 | 4.1 | O=CN1CCc2ccc(OCc3cccc(F)c3)cc2CC1 [Example 6, 7-(3-Fluoro-benzyloxy)-1,2,4,5-tetrahydro-benzo[d]azepine-3-carbaldehyde]
8 | 0.068 | 4.5 | COC(=O)N1CCc2ccc(OCc3cccc(F)c3)cc2CC1 [Example 5, 7-(3-Fluoro-benzyloxy)-1,2,4,5-tetrahydro-benzo[d]azepine-3-carboxylic Acid Methyl Ester]
